Data reported in US20230292743A1, “Method for increasing the lifespan and motility of animal sperm using an inhibitor of Slo3 potassium channel” (IMV TECHNOLOGIES, priority 2017, published 2023).

Key:
bovine sperm [1] = assay: Ability of frozen-thawed bovine capacitated sperm to fertilize oocytes after 24 h incubation in sp-TALP (2-cell embryos, blastocysts); format: cell-based; conditions: 0.2 μM clofilium in sp-TALP 24 h prior fertilization, vs control 24 h
Procedure: Bovine sperm was obtained by ejaculation. Ejaculate was diluted 1:1 in Optixcell. After 10 minutes of 34° C. incubation, semen was then diluted to a final concentration of 57 million of spermatozoa/mL in Optixcell. Optixcell is a TRIS citrate buffer containing liposomes extruded from egg yolk lecithins, glycerol and antibiotics described by CEE (Directive 88/407/CEE). Diluted semen was slowly cooled down to 4° C. (3 to 4 h equilibration in a tempered water-bath), 0.25 mL straws were filled and then frozen in a controlled rate freezer at a cooling rate of 5° C./min from 4° C. to −10° C., 40° C./min from −10° C. to −110° C., 15° C./min from −110° C. to […]. Straws were then stored in liquid nitrogen until in vitro fertilization. Straws were thawed in a water-bath at 37° C. for 45 s. Each straw was wiped with 70° ethanol before being opened. […] Sperm concentration was measured and 750 000 sperm cells are injected into a fertilization droplet (500 μL) containing oocytes bathing in fertilization medium. […] Sperm (1.5 M/mL) and cumulus oocyte complexes (COCs) co-culture were performed at 38.5° C. under gaseous atmosphere of 5% v/v CO2 and saturated humidity for 48 h and then fertilization outcome was assessed. […] Cleavage rate assessed at 48 h and blastocyst rate at day 9 post-fertilization. […]

bovine sperm [2] = assay: Bovine sperm motility by CASA analysis (VCL, total motility) after 24 h in capacitation medium; format: cell-based; conditions: 24 h in capacitation medium at 37° C., vs control
Procedure: For motility, sperm were incubated with 0.2, 0.5, 1 and 5 μM clofilium diluted in the capacitation medium for 24 hours at 37° C. under saturated humidity. Sperm motility was measured using Computer Assisted Semen Analysis (CASA analysis). The CASA analysis was performed using a CEROS™, Hamilton Thorne Bioscience, USA. VCL (curvilinear velocity) was then measured. 2. The viability of the capacitated sperm was determined by the measurement of the sperm motility. The motility analysis was carried out as in Example 1.3. The first results are shown in FIGS. 6A and 6B, which illustrates the motility (in terms of VCL, in μm/s), i.e. the sperm velocity, sperm being incubated 24 h in a capacitation medium prior CASA, for each of the solutions tested: control (“[0 μM]”), 0.2 μM clofilium (“[0.2 μM]”), 0.5 μM clofilium (“[0.5 μM]” or “[0.5]”), 1 μM clofilium (“[1 μM]” or “[1]”) and 5 μM clofilium (“[5 μM]” or “[5]”) (FIG. 6A) and which illustrates the total motility (%), for each of the solutions tested “[0μM ]”, “[0.2 μM]” (or “[0.2]”), “[0.5 μM ]” (or “[0.5]”), “[1 μM ]” (or “[1]”) and “[5 μM ]” (or “[5]”) (FIG. 6B). As known to the skilled person, the “total motility”indicates the overall percentage of sperm that are moving in any direction (VAP>1μm/s).

Structure (SMILES): CCCCCCC[N+](CC)(CC)CCCCc1ccc(Cl)cc1 [clofilium]
- percentage of blastocysts vs matured oocytes 9 days after fertilization (bovine sperm [1]): improves the yield of bovine blastocysts
- motility (in terms of VCL), sperm velocity (bovine sperm [2]; 0.2 μM clofilium): higher velocity than the non-treated
- motility (in terms of VCL), sperm velocity (bovine sperm [2]; 0.5 μM clofilium): higher velocity than the non-treated
- motility (in terms of VCL), sperm velocity (bovine sperm [2]; 1 μM clofilium): higher velocity than the non-treated
